Results published in article PMC7562955 (Nature Communications, 2020).

Columns and labels:
TLR1/2 = target: T1, TLR1/2 (Homo sapiens, UniProt O60603+Q15399); assay: TNF-α production by human PBMC stimulated by TLR1/2 ligand Pam3CSK4 (ELISA); format: cell-based; conditions: human PBMCs, 2.5 μM
T1 construct: Human Peripheral Blood Mononuclear cells (hPBMCs) were collected from healthy adult donors; endogenous in cells; host or cells: primary human PBMCs

TLR7 = target: T2, TLR7 (Homo sapiens, UniProt Q9NYK1); assay: TLR7 inhibition assay in primary human PBMCs (R848-induced IFN-α, ELISA); format: cell-based; parameters: Human Peripheral Blood Mononuclear cells (hPBMCs) were collected from healthy adult donors; endogenous in cells; host or cells: primary human PBMCs (plasmacytoid DCs produce the IFN-α); conditions: for R848-induced IFN-α production: 2.5 μM; for Mean IFN-α / IFN-α: antagonist 2.5 μM; for Mean IFN-α: n = 3; for IFN-α: single replicate
T2 sequence (Q9NYK1 27-1049): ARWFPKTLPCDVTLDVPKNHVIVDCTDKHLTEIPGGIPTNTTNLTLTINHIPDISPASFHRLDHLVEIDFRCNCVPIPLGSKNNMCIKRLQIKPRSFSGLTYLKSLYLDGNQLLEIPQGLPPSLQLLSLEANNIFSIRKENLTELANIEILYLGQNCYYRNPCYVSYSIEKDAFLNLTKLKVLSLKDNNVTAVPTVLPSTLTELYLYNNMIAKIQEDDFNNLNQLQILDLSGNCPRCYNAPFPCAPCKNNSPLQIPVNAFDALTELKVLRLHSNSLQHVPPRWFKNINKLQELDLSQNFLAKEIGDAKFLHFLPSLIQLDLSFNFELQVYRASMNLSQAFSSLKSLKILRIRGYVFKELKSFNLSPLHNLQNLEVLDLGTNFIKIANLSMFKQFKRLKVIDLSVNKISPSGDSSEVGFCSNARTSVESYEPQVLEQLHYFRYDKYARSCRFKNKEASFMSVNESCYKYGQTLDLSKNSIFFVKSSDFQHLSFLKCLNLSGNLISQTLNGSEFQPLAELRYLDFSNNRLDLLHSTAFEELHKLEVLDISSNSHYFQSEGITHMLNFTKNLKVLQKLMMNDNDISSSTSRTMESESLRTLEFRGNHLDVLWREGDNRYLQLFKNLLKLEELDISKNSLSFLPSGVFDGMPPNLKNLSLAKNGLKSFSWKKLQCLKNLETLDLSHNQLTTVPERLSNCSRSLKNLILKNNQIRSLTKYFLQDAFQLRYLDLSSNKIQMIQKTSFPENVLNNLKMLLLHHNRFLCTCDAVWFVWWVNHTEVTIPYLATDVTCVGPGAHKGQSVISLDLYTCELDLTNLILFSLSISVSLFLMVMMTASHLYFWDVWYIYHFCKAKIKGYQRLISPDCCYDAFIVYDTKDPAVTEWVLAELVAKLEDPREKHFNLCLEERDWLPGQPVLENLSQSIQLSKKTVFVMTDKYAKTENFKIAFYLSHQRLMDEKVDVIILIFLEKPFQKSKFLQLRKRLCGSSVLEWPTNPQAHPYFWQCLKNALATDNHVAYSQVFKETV
Method: Human Peripheral Blood Mononuclear cells (hPBMCs) were collected from healthy adult donors. hPBMCs were cultured in round-bottom 96-well plates (BD Falcon, Durham, NC, USA) with a density of 5 × 10^5 cells/well. Plated cells were pretreated with DMSO or 2.5 μM inhibitors for 3 h and then stimulated by indicated ligands, such as R848 or TLR1/2 specific ligand Pam3CSK4 (Invivogen, HongKong, China), for 20 h in […] of RPMI 1640 medium (Gibco, Paisley, UK) supplemented with 10% FBS, Penicillin-Streptomycin-Glutamine (Gibco, Paisley, UK), 50 μM 2-ME medium at 37 °C in the presence of 5% CO2. Supernatants were collected to measure secreted cytokines by ELISA. Concentration of human IFN-α and TNF-α in the supernatants was measured with Verikine Human IFN-α Multi-Subtype Serum ELISA Kit (PBL Assay Science, Piscataway, NJ, USA) and Human TNF-α Uncoated ELISA (ThermoFisher Scientific, Carlsbad, CA, USA), respectively. This study was approved by the Research Ethics Committee of IMSUT (accession number: 30-100-B20190419).

T1 sequence (Q15399 25-786): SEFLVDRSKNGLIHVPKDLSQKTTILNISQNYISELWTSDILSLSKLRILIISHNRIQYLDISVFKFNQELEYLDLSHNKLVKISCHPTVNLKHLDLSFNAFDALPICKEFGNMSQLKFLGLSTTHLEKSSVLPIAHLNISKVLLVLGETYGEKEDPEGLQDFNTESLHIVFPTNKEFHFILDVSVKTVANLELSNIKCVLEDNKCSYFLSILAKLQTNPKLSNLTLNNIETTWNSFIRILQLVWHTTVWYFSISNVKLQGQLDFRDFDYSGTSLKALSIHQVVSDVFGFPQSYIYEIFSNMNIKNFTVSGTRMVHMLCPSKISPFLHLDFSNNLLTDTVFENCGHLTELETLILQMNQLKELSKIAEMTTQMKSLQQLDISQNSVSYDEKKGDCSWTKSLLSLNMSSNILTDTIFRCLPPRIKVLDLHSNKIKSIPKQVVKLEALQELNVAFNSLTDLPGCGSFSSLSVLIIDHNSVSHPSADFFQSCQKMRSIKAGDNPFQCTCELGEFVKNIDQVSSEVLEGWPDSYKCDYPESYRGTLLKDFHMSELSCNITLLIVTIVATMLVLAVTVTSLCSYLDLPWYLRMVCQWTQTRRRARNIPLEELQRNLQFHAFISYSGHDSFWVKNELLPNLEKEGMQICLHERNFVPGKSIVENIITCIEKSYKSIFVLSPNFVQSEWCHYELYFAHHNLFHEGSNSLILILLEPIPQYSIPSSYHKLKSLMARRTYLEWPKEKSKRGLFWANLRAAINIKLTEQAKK
T1 sequence (O60603 19-784 limits assumed): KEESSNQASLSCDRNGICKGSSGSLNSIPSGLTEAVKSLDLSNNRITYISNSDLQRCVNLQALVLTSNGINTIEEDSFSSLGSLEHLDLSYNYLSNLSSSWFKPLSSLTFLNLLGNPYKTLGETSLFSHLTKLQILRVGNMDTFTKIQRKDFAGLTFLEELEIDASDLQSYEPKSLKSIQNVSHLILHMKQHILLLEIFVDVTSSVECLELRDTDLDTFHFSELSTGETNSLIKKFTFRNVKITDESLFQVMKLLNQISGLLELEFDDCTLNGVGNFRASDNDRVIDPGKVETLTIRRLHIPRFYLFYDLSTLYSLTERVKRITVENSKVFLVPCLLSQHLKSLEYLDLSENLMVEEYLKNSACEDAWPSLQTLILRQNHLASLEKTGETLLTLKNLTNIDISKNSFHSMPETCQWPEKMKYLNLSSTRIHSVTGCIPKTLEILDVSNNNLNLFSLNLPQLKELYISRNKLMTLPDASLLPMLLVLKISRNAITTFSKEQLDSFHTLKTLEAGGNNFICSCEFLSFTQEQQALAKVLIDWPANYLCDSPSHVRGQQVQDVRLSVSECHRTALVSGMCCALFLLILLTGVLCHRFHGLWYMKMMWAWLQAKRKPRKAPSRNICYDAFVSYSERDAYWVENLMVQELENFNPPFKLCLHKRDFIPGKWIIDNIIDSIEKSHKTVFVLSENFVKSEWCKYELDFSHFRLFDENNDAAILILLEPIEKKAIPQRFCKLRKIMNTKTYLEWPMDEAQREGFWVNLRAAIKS

SMILES | cytotoxicity (TLR1/2) | R848-induced IFN-α production (TLR7) | Mean IFN-α (TLR7; activator None) [pg/mL] | IFN-α (TLR7; activator None) [pg/mL] | Mean IFN-α (TLR7; activator R848 (200 nM)) [pg/mL] | IFN-α (TLR7; activator R848 (200 nM)) [pg/mL]
CCOc1nc(N)c2nc(-c3cncc(F)c3)n(Cc3ccc(CN4C[C@@H]5C[C@H]4CN5C)cc3)c2n1 [Cpd-6] | not cytotoxic | completely blocked | 0 | 0 | 0 | 0
CCOc1nc(C)c2nc(-c3cncc(F)c3)n(Cc3ccc(CN4C[C@@H]5C[C@H]4CN5C)cc3)c2n1 [Cpd-7] | not cytotoxic | completely blocked | 0 | 0 | 0 | 0
